The test concerns rat aortic ring. Kind of test: In vitro smooth muscle relaxant activity assay (rat aortic ring assay) in the presence of Cys and L-NAME. The format is cell-based. Particulars: for EC50: rat aortic rings precontracted with phenylephrine (0.3 uM), read-out: Relaxation, EC50. The protocol: The rat aortic ring assay was utilized as a bioassay to measure the relaxant activity. The rings were precontracted with phenylephrine (0.3 uM) and subsequently compounds were added to the tissue bath in the presence of cysteine (Cys) and N^G -L-nitroarginine methyl ester (L-NAME): In vitro smooth muscle relaxant activity assay in the presence of Cys and L-NAME: […]

With `CCCC1O[C@@H]2C[C@H]3[C@@H]4CCC5=CC(=O)C=C[C@]5(C)[C@H]4[C@@H](O)C[C@]3(C)[C@]2(C(=O)CO[N+](=O)[O-])O1` (stereo partly shown) [Example 2A, Budesonide-21-Nitrate ester], the EC50 – broadly, the midpoint of the concentration-response curve – stood at 5 µM.

On to `CCCC1O[C@@H]2C[C@H]3[C@@H]4CCC5=CC(=O)C=C[C@]5(C)[C@H]4[C@@H](ON=O)C[C@]3(C)[C@]2(C(=O)CO)O1` (stereo partly shown) [Example 1, Budesonide-11-nitrite ester], for which the EC50 is 0.02 µM.

With `CCCC1O[C@@H]2C[C@H]3[C@@H]4CCC5=CC(=O)C=C[C@]5(C)[C@H]4[C@@H](O)C[C@]3(C)[C@]2(C(=O)CO)O1` (stereo partly shown) [budesonide, 16a,17-butylidenedioxyprednisolone], the EC50 stood at 100 µM. Besides, the “smooth muscle relaxant activity (in words)” value (rat aortic rings precontracted with phenylephrine) is “did not show any effect”.
